Measurements reported in patent US11975106B2, “Uses of halogenated xanthenes in oncology and virology” (Provectus Pharmatech, Inc., priority 2020, dated 2024).
In brackets after ≈: the same amount, converted by molar mass. Like-named read-outs stand apart in the source and are kept apart here.

Key:
young male Wistar rats = settings: cited from earlier work
[1] = in vivo; cited from earlier work
[2] = package insert; cited from earlier work
SARS-CoV-2 [3] = assay type: cell-based; settings: Calu-3 cells, 48-hour RB contact; read-out: EC50 (viral titer)
leukemia cell lines = settings: cited from earlier work
STING = STING dimerization by Western blot in THP-1 AML cells; assay type: cell-based
Protocol: Cells were treated with RB and the induction of STING was evaluated by Western blot analysis using cyclic guanosine monophosphate-adenosine monophosphate (cGAMP) as a positive control.
(§1) These studies were carried out using RB at 100 μM, or about 0.01% RB. Cytokine assays were carried out prior to the addition of RB to the cell culture medium (0), and at 8, 24 and 48 hours thereafter.
(§2) Proteins that associate with STING in the presence of RB were purified by immunoprecipitation and analyzed by mass spectrometry (LC-MS/MS). The culture supernatants from RB-treated cells were probed for a panel of 42 immune cytokines using the Bio-Plex® multiplex bead-based assay system (Bio-Rad Laboratories, Inc.).

[4] = test system: SARS-CoV-2 viral envelope protein (E gene) vRNA; assay: qPCR of viral RNA (E gene) after RB treatment; assay type: cell-based
[5] = Plasma protein binding, ultracentrifugation method, human plasma; assay type: in vitro ADME
Excerpt: (§3) In normal rats, 75-80% of the RB was recovered from the albumin fraction and the remaining 20-25% in other protein fractions [Tsao et al. 1988, supra; and Meurman, Acta medica Scan, Supp 167, Chapters I, III, V, VII, X and XII (1960)].

[6] = Plasma protein binding, ultracentrifugation method, rat plasma; assay type: in vitro ADME
Excerpt: as §3

[7] = cited from earlier work
THP-1 AML cells = assay: Cytokine/chemokine Bio-Plex assay of THP-1 AML culture supernatants; assay type: cell-based; settings: RB 100 μM
Protocol: as §1, §2

SARS-CoV-2 [8] = test system: SARS-CoV-2
[9] = Classic IV diagnostic use of RB, blood concentration; assay type: in vivo, human; settings: 100 mg single IV bolus, blood volume approximately 5 L (also approximately 20 μM)
Protocol: Based on a molecular weight of 1018 g/mole for disodium RB, the classic IV diagnostic use of RB, conducted by giving 100 mg RB as a single IV bolus to adults with a standard blood volume of approximately 5 L, achieved a concentration of approximately 20 mg/L in the blood, or approximately 20 μM RB. Exposure at such a level would have minimal direct cytotoxic effect on solid tumor or hematologic malignancies, as illustrated by the results of Swift et al. 2019 or Swift et al. 2018, above.

Vero cells = settings: 48 hours
[10] = cited from earlier work; remark: listed apart in the source
[11] = humans, intravenous; cited from earlier work
[12] = test system: SARS-CoV-2 isolate USA-WA1/2020; assay: microbe, parasite or virus in culture; assay type: cell-based
[13] = Clinical studies of PV-10 delivered intratumorally; assay type: in vivo, human
Protocol: In clinical studies of PV-10 (10% disodium RB in saline for injection), RB has been tolerated at a bolus dose of 1500 mg upon intravasation when delivered intratumorally; this equates to an exposure of approximately 300 mg/L in the bloodstream (300 μM RB).

progressive COVID-19 = settings: cited from earlier work
[14] = rats, similar concentrations for comparators
[15] = oral 300 mg/kg/day, young male Wistar rats

Compound: O=S(=O)([O-])c1ccc2c(N=Nc3ccc(S(=O)(=O)[O-])c4ccccc34)c(O)c(S(=O)(=O)[O-])cc2c1.[Na+].[Na+].[Na+] [Amaranth, reference compound]
- H^3-UTP incorporation into RNA or RNA content in liver nuclei (RNA synthesis in vivo) (young male Wistar rats; rat, in vivo): stimulate RNA synthesis

Compound: Cc1cc(C)c(N=Nc2c(O)c(S(=O)(=O)[O-])cc3cc(S(=O)(=O)[O-])ccc23)cc1C.[Na+].[Na+] [Ponceau 3R, reference compound]
- H^3-UTP incorporation into RNA or RNA content in liver nuclei (RNA synthesis in vivo) (young male Wistar rats; [14]): stimulate RNA synthesis

Compound: N#C[C@@]1(c2ccc3c(N)ncnn23)O[C@H](CO)[C@@H](O)[C@H]1O [GS-441524]
- half-life [1]: about 25 hours

Compound: Yervoy®: immune checkpoint inhibitor monoclonal antibody
- terminal t1/2 [2]: 15.4 days

Compound: O=C1OC2(c3cc(I)c(O)c(I)c3Oc3c2cc(I)c(O)c3I)c2c(Cl)c(Cl)c(Cl)c(Cl)c21 [RB, 4,5,6,7-tetrachloro-2′,4′,5′,7′-tetraiodofluorescein]
- EC50 (SARS-CoV-2 [3]): 0.015 µM
- IC50 (leukemia cell lines; primary pediatric leukemia cell lines): 92.8 µM
- IC50 (leukemia cell lines; refractory (relapsed) pediatric leukemia cell lines): 122 µM
- STING dimerization (Western blot) (STING; RB at 100 μM): new about 70-KD STING dimer band
- induction of PDL-1 (STING; compared to cGAMP controls): no induction
- cycle threshold (ct) of sub-genomic viral RNA [4]: higher ct values
- viral E gene copy numbers / viral production ([4]; RB added after the virus has been incubated with the cells): no effect
- viral E gene copy numbers ([4]; virus and RB added at the same time): reduction compared to control
- viral E gene copy numbers ([4]; virus pre-treated with RB 0.6 μM, 1 hour, p<0.05): lower copy numbers
- plasma protein binding ([5]; 1 μM): 99.8%
- plasma protein binding ([5]; 10 μM): 99.9%
- plasma protein binding [6]: 99.2%
- plasma protein binding ([6]; 1 μM): 99.0%
- solubility ([7]; in 2-methoxyethanol (printed also as 6%)): 60 mg/mL (≈ 61.6 mM)
- solubility ([7]; in ethanol (printed also as 3%)): 30 mg/mL (≈ 30.8 mM)
- solubility ([7]; in water (printed also as 10%)): ≥ 100 mg/mL
- increase in IL-6 (THP-1 AML cells; 24 hours following exposure): approximately 10 fold
- increase in IL-8 (THP-1 AML cells; 24 hours following exposure): approximately 10 fold
- increase in IP-10 (THP-1 AML cells; 24 hours following exposure): approximately 10 fold
- MCP-1 levels (THP-1 AML cells): significant increase
- induction of IFN gamma (THP-1 AML cells; peak at 24 hours): > 2 fold
- induction of MCP-3 (THP-1 AML cells; peak at 24 hours): > 2 fold
- SI (CC50/EC50) (SARS-CoV-2 [8]; Vero cells, 48 hours): 3211
- inhibition in viral titers (SARS-CoV-2 [8]; Vero cells, approximately 1 to 100 μM RB, 48 hours of contact): complete inhibition
- EC50 (SARS-CoV-2 [8]; read-out: EC50 (viral titer)): 0.054 µM
- concentration in the blood [9]: approximately 20 mg/L
- CC50 (Vero cells): 175 µM
- bound in serum ([10]; equilibrium dialysis, serum from rats lacking serum albumin): more than 99.8%
- recovered from the albumin fraction ([10]; normal rats): 75-80%
- recovered in other protein fractions ([10]; normal rats): 20-25%
- influence on growth rate (young male Wistar rats; [15]): no influence
- relative liver weight (young male Wistar rats; [15]): significant decrease
- H^3-UTP incorporation into RNA or RNA content in liver nuclei (RNA synthesis in vivo) (young male Wistar rats; [14]): No effect
- circulatory half-life [11]: about 30 minutes
- IC50 ([12]; RB alone, 2 hours of contact, Vero C1008, read-out: IC50 for inhibition): 67 µM
- IC50 ([12]; RB plus 0.15 μM remdesivir, 2-hour RB contact, Vero C1008, read-out: IC50 for inhibition): 47.4 µM
- exposure in the bloodstream ([13]; at 1500 mg bolus (printed also as 300 μM RB)): approximately 300 mg/L
- tolerated bolus dose ([13]; upon intravasation when delivered intratumorally as PV-10): 1500 mg

Compound: CCC(CC)COC(=O)[C@H](C)N[P@](=O)(OC[C@H]1O[C@@](C#N)(c2ccc3c(N)ncnn23)[C@H](O)[C@@H]1O)Oc1ccccc1 [remdesivir, reference compound]
- half-life [1]: about 0.89 hours
- EC50 ([12]; Severe acute respiratory syndrome coronavirus 2, Vero C1008, read-out: EC50 (percent plaque forming unit)): 0.86 µM
- IC50 ([12]; Severe acute respiratory syndrome coronavirus 2, Vero C1008, read-out: IC50 (percent inhibition)): 0.86 µM

Compound: tocilizumab: immunosuppressive humanized monoclonal antibody against the interleukin-6 receptor
- death rate ratio (progressive COVID-19; 28-day mortality, 95% CI 0.77-0.96, p=0.007): 0.86
- proportional reduction in 28-day mortality (progressive COVID-19; about 4000 hospitalized patients, progressive COVID-19): 13%
